Measured values: patent publication US9445987B2, “Ceramide production enhancer and moisturizer” (Kao Corporation, priority 2009, dated 2016)

Tested on: Normal human epidermal keratinocytes (NHEK(F))
Experiment: Verification of ceramide production enhancing effect (Test Example 2 and Reference Example)
Type: cell-based
Description: Normal human epidermal keratinocytes (trade name: NHEK(F), manufactured by Kurabo Industries, Ltd.) were cultured under the conditions of 37° C. and 5% CO2, in a culture fluid (trade name: EpiLife-KG2, manufactured by Kurabo Industries, Ltd.) using a culture plate.
Thereafter, the culture fluid was exchanged with EpiLife-KG2 from which growth factors such as epidermal growth factor had been eliminated, and a solution in which concentration of toosendanin was adjusted to 1 mM (574 ppm), or a control solution (50% ethanol) was added to the culture fluid in an amount of 0.01%.
The cells were cultured for 3 days, and then the respective cells were collected from each well.
An organic phase obtained by extracting lipids from the collected cells by the Blight and Dyer method, was transferred into a glass tube, and was dried to solid in nitrogen stream. Subsequently, the dried product was redissolved in chloroform and methanol, and this was used as a lipid sample.
Further, 0.1N NaOH and a 1% aqueous SDS solution were added to the cells from which lipids had been extracted, and the mixture was heated at 60° C. for 2 hours to thereby solubilize proteins. The mixture was cooled to room temperature, and then 2N HCl was added for neutralization. The amount of proteins was quantified by the BCA method. […]

`CC(=O)O[C@@H]1C[C@H](O)[C@@]23CO[C@@H](O)[C@]1(C)[C@@H]2C[C@@H](O)[C@]1(C)[C@@H]3C(=O)[C@H](OC(C)=O)[C@@]2(C)[C@H](c3ccoc3)C[C@H]3O[C@]321` [Toosendanin, toosendanin] was tested, and the “Amount of ceramide production (Amount of ceramide production of control solution-added group = 1)” value (concentration for verification 57.4 ppb, cells cultured 3 days, TLC detection, control 50% ethanol) was 1.22 and the “amount of ceramide production as compared to the control system (in words)” value (toosendanin-added system, 57.4 ppb, Table 2) was “an increase in the amount of ceramide production was recognized”.
